# Measurements: ChEMBL document CHEMBL4619731, “Identification of a new class of non-electrophilic TRPA1 agonists by a structure-based virtual screening approach” (Bioorg Med Chem Lett, 2020)
# Target: Transient receptor potential cation channel subfamily A member 1 (Homo sapiens) (UniProt O75762)
# Assay: Agonist activity at TRPA1 (unknown origin) at 1000 uM relative to AITC
# Transient receptor potential cation channel subfamily A member 1 (Homo sapiens), sequence (O75762 whole entry): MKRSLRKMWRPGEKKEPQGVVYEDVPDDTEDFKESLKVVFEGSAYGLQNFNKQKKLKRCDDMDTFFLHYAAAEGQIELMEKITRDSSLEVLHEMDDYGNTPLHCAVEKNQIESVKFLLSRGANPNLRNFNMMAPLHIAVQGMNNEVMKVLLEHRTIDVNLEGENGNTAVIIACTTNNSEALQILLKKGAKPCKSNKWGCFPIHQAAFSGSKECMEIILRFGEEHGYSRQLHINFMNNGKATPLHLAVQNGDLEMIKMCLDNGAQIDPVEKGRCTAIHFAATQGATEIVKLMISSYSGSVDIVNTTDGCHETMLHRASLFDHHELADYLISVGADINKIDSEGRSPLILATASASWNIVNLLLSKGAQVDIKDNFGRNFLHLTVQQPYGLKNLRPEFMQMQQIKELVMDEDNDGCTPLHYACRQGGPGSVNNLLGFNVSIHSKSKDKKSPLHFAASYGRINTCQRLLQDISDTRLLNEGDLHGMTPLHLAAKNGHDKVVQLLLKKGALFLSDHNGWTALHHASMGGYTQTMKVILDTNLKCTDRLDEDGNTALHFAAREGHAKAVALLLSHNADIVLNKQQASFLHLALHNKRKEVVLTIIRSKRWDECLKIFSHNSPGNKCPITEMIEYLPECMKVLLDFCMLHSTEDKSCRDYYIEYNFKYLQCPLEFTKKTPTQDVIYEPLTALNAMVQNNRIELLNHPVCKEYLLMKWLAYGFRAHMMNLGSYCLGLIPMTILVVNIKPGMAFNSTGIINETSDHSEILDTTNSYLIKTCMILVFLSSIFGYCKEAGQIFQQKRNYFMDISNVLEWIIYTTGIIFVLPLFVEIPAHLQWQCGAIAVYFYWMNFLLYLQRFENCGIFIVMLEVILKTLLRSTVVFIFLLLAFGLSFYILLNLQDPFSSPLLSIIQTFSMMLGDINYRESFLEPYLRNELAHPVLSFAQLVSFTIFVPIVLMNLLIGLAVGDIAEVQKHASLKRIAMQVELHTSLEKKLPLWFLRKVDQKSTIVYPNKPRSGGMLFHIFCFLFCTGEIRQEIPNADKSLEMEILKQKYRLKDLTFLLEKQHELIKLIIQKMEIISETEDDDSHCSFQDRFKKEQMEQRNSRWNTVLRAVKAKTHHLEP
row,SMILES,Activity [%]
1,CCCCCCCCCCCCCC(C)=O,10
2,O=c1ccn([C@@H]2O[C@H](CO)[C@@H](O)[C@H]2O)c(=O)[nH]1,11
3,CCCCCCCC1CCC(=O)O1 (centres undefined),27
4,CCCCCCCCC(=O)OCC,12
5,CCCCCCCCCC(=O)OCC,16
6,CCCCCCCC1CCCC(=O)O1 (centres undefined),20
7,O=c1cc(-c2ccc(O)cc2)oc2c([C@@H]3O[C@H](CO)[C@@H](O)[C@H](O)[C@H]3O)c(O)cc(O)c12,15
8,CCOC(=O)CC(O)(CC(=O)OCC)C(=O)OCC,18
9,CCCCCCCCCCC(C)=O,13
10,CCCCCCCOC(C)=O,8
11,CCCCCCCCC(=O)OC,39
12,O=C(O[C@H]1Cc2c(O)cc(O)cc2O[C@@H]1c1ccc(O)c(O)c1)c1cc(O)c(O)c(O)c1,15
13,CCCCCCCCCCCC(C)=O,13
14,O=c1c(O[C@@H]2O[C@@H](CO)[C@H](O)[C@H]2O)c(-c2ccc(O)c(O)c2)oc2cc(O)cc(O)c12,41
15,CCCCCCCCCCCCO,12
16,Oc1cc(O)c2c(c1)O[C@H](c1ccc(O)c(O)c1)[C@H](O)[C@H]2c1c(O)cc(O)c2c1O[C@H](c1ccc(O)c(O)c1)[C@H](O)C2,22
17,CCCCCCCCCC(=O)OC,14
18,CCCCCCCC(=O)OC,33
19,CCCCCC(=O)OCC(C)C,23
20,CCCCCCCCCC(C)=O,15
21,CCCCC(CC)COC(=O)c1ccccc1O (centres undefined),14
22,CC(=O)OC(C)C,10
23,CCCCCCCC(=O)OCCC(C)C,12
24,CCCCCC(=O)OCCC(C)C,16
25,OC[C@H]1O[C@H](O[C@H]2[C@H](O)[C@@H](O)[C@@H](O[C@H]3[C@H](O)[C@@H](O)C(O)O[C@@H]3CO)O[C@@H]2CO)[C@H](O)[C@@H](O)[C@@H]1O (some centres undefined),14

row,SMILES,Activity [%]
1,C/C=C/C(=O)C1=C(C)C=CCC1(C)C,13
2,CCCC(=O)OCCc1ccccc1,62
3,CCCCCCCCC(C)=O,11
4,CCCCCCCCCCCC(=O)OCC,15
5,CCCCCCCCCC(=O)OCCC(C)C,13
6,CCCCCCCCCCO,71
7,CCCCCCCCCCCO,20
8,CCCCCCCC(=O)OCC,9
9,CCCC(=O)OCC(C)C,19
10,CCCCCCCCCCCCCC(=O)OCC,17
11,COc1cc(C2OCC3C(c4cc(OC)c(O)c(OC)c4)OCC23)cc(OC)c1O (centres undefined),26
12,CC(O)CO (centres undefined),12
13,CCCCCCCCCC(C)O (centres undefined),16
14,O=c1cc(-c2ccc(O)cc2)oc2cc(O[C@@H]3O[C@H](CO)[C@@H](O)[C@H](O)[C@H]3O)c([C@@H]3O[C@H](CO)[C@@H](O)[C@H](O)[C@H]3O)c(O)c12,20
15,C[C@@H]1O[C@@H](O[C@H]2[C@H](Oc3cc(O)c4c(c3)O[C@H](c3ccc(O)cc3)CC4=O)O[C@H](CO)[C@@H](O)[C@@H]2O)[C@H](O)[C@H](O)[C@H]1O,20
16,CC(C)C(=O)OCCc1ccccc1,37
17,CCCCCCCCCCCCCCCC(=O)OC,17
18,CCCCCCCCOC(C)=O,8
19,CCCCC(CC)CO (centres undefined),60
20,CCCCCCCC(=O)CC,15
21,CCCCCCCCCCCCCC(=O)O,23
22,CC(=O)OCC(COC(C)=O)OC(C)=O,17
23,CCCCCCCCOC(=O)CCC,13
24,CCOC(=O)c1ccco1,12
